This is an account of results in patent US5439892A, “Dextrin sulfates as anti HIV-1 agents and composition thereof” (ML Laboratories, priority 1990, dated 1995).

Like-named read-outs stand apart in the source and are kept apart here.

The nature of series [1]: toxicity: cell viability by [3H]-thymidine uptake in PHA-stimulated human PBL. The format is cell-based. The note with it: human, pha-stimulated pbl, 3 days, mean of quadruplicate, read-out: Thymidine uptake (% of control with no drug). On the procedure:
(§1) Normal human peripheral blood lymphocytes (PBL) were fractionated on Ficoll-Hypaque (Pharmacia Chemicals, Uppsala, Sweden) from venous blood collected in preservative-free heparin. They were mitogenetically stimulated with phytohaemaglutinin (PHA) (1 ug/ml) for 3 days and maintained in the medium RPMI 1640 supplemented by 20% foetal calf serum (FCS)+interleukin-2 (IL2) ([…]).
(§2) The relative toxicities of the materials tested in example 4 were evaluated by reference to cell viability in the presence of the drugs as measured by the relative uptake of [^3 H]- thymidine. Human PBL (10^6 cells/well) in 96 microtitre plates was stimulated with PHA in the presence of increasing concentration of drug for 3 days. Following a 5 hour probe with [^3 H]- thymidine (0.5 uCi/well), the cells were harvested and counted. The results shown represent the mean of quadruplicate experiments and are presented as the percentage incorporation of [^3 H]-thymidine in the presence of drug, compared to control experiments without drug.

In the next series the test system is Human PBL. Described as above. The following applies: around 200 ug/ml. The series is classed as cell-based. On the procedure:
as §1, §2

Another series has as its system HIV-1 CBL-4. Description: decrease in infectivity titre in C8166 cells, HIV-1 CBL-4. The following applies: for decrease in infectivity titre: CBL-4, C8166 cells. The format is cell-based.
In series [2] the test system is HIV-1 (RF). The format is cell-based. The text has this:
(§3) HIV-1 (RF) was titrated in 10-fold dilutions onto C8166 cells in the presence of varying concentrations of drug. […] The figures in the table represent the logarithm to the base 10 of the figure actually determined. For instance, a figure of -6 in the table represents a determined result of 10^-6.

Another series concerns HIV-1 IIIB. Description: decrease in infectivity titre in C8166 cells, HIV-1 IIIB. The format is cell-based. The following applies: for decrease in infectivity titre: IIIB, C8166 cells.
Series [3] relates to HIV-1 (RF). Description: microbe, parasite or virus in culture. The series is classed as cell-based. The note with it: for decrease in infectivity titre: RF. As to the method: The human T-leukamic cell line C8166 was grown in RPMI 1640 with 10% FCS.
Various strains of HIV-1 (RF. IIIB, CBL-4, Z84 and Z129) were produced in chronically infected H9 cells. A five-fold excess of uninfected H9 cells was added to the culture five days prior to harvesting the supernatant which is clarified by centrifugation and stored in liquid nitrogen.
Induction of cytopathic effects on CD4^+ C8166 by HIV was assayed by multi-nucleated giant cell formation (syncytia).
as §3

The next series deals with CBL20. As to the kind of experiment: minimum concentration inhibiting syncytia formation in M8166 JH11 cells, CBL20. The format is cell-based, HIV-1. The following applies: 10^3 TCID. As to the method: (§4) 50 ul samples of dextran sulphate and of the 2-, 3- and 6-sulphate derivatives of dextrin of Examples 3, 1 and 2 respectively were pre-incubated at 37° C. onto duplicate cultures of 4×10^5M8166 JH11 cells per ml (50 ul) at final concentrations of […] for one hour.

A further series deals with Bovine Thrombin. Description: anti-coagulant activity: clot formation time of pooled normal plasma after bovine thrombin. The series is classed as biochemical. The note with it: comparison among dextrin sulphates. On the procedure:
The materials to be tested were each dissolved in veronal buffer to a concentration of 1 mg/ml=1000 ug/ml and a further dilution of 100 ug/ml was made by a 1:10 dilution in veronal buffer. Pooled normal plasma (1 ml) was then placed into each of nine plastic tubes. The solutions containing the materials to be tested were then added to the plasma to achieve a range of final concentrations from 1-300 ug/ml, in each case the volume being made up to 1.5 ml with veronal buffer. The resultant mixtures were incubated at 37° C. for 30 minutes, following which two 0.2 ml aliquots were extracted from each sample into glass tubes (Samples A and B), and 0.1 ml 7 U Bovine Thrombin was added and clot formation timed.

The next series concerns RF. Description: minimum concentration inhibiting syncytia formation in M8166 JH11 cells, RF. The format is cell-based, HIV-1. The note with it: for inhibitory concentration (minimum concentration at which syncytia formation was <10% that of controls): RF, 10^3 TCID, M8166 JH11 cells. On the procedure:
as §4

A further series deals with RUT. As to the kind of experiment: minimum concentration inhibiting syncytia formation in M8166 JH11 cells, RUT. The series is classed as cell-based, HIV-1. The following applies: 10^2 TCID. As to the method:
as §4

The subject of series [4] is HIV-1. As to the kind of experiment: activity against HIV-1 virus (general statement). The following applies: comparison among dextrin sulphates.
In the next series the test system is IIIb. Description: minimum concentration inhibiting syncytia formation in M8166 JH11 cells, IIIb. The format is cell-based, HIV-1. The note with it: 10^3 TCID. As to the method: as §4
Series [5] deals with HIV-1. Description: inhibition of syncytia formation, overall over IIIb, RF, RUT, CBL20. The following applies: compared with dextran sulphate (MW 8,000) and dextrin 3-sulphate. The format is cell-based. As to the method:
as §4

Where [6] appears, read: Human immunodeficiency virus 1, C8166, read-out: decrease in infectivity titre.
The mark [7] stands for this setting: Human immunodeficiency virus 1, IIIB, C8166, read-out: decrease in infectivity titre.
[8] abbreviates: 0.1 ug/ml, HIV-1 (RF), C8166 cells.
Setting [9] is: 1.0 ug/ml, HIV-1 (RF), C8166 cells.
[10] abbreviates: 10 ug/ml, HIV-1 (RF), C8166 cells.
Setting [11] is: 100 ug/ml, HIV-1 (RF), C8166 cells.

With `Cc1cn([C@H]2C[C@H](N=[N+]=[N-])[C@@H](CO)O2)c(=O)[nH]c1=O` [AZT, zidovidine], the viability at 72 h turned out to be 20% in series [1] (5 ug/ml); 15% in series [1] (10 ug/ml); 5% in series [1] (25 ug/ml); 2% in series [1] (50 ug/ml); 1% in series [1] (71 ug/ml); 1% in series [1] (100 ug/ml). Also, in [1] (200 ug/ml), the viability at 72 h was 0%. Further, the toxicity in words result in the series with Human PBL is recorded as “very highly toxic”. The log reduction at 10 µg/mL with HIV-1 CBL-4 (setting [6]) came out at 4; with HIV-1 IIIB (setting [7]), 4; in the series on HIV-1 (RF) [3] (setting [6]), 3; in the series on HIV-1 (RF) [3] (Human immunodeficiency virus 1, C8166, read-out: reduction of the infectious titre), 3. Also, the log reduction at 50 µg/mL with HIV-1 CBL-4 (setting [6]) was 4; in the series on HIV-1 IIIB (setting [7]) it was 4; with HIV-1 (RF) [3] (setting [6]) it was 3. Also, the “Inhibition of HIV-1 (RF), live cell (C8166) reduction of MTT, estimated visually” value in the series on HIV-1 (RF) [2] (0.1 ug/ml), in the series on HIV-1 (RF) [2] (1.0 ug/ml) and in the series with HIV-1 (RF) [2] (10 ug/ml) was “-” in each case. Besides, the “Final dilution of the virus at which syncytia are produced (logarithm to the base 10)” value (shortened to “Final dilution … (logarithm to the base 10)”) is -4 in the series on HIV-1 (RF) [3] (setting [8]), -3.5 in the series with HIV-1 (RF) [3] (setting [9]), -3 in the series with HIV-1 (RF) [3] (setting [10]) and -3 with HIV-1 (RF) [3] (setting [11]). Further, in the series with HIV-1 (RF) [3] (Human immunodeficiency virus 1, C8166, read-out: inhibition (reduction of the infectious titre)), the log reduction at 1 µg/mL was 2.5.

Take Dextran: the “Inhibition of HIV-1 (RF), live cell (C8166) reduction of MTT, estimated visually” value with HIV-1 (RF) [2] (10 ug/ml) is given as “-”. In addition, the “Final dilution … (logarithm to the base 10)” value with HIV-1 (RF) [3] (setting [8]), in the series on HIV-1 (RF) [3] (setting [9]) and in the series on HIV-1 (RF) [3] (setting [10]) was -6 in each case. In addition, the “effect against HIV replication” value in the series with HIV-1 (RF) [3] (HIV-1 (RF), C8166 cells) is given as “ineffective against HIV replication”.

For the molecule dextrin 2-sulphate, the “decrease in infectivity titre” value stood at 0 log units in the series on HIV-1 CBL-4 (10 ug/ml); 4 log units in the series with HIV-1 CBL-4 (50 ug/ml); 3 log units in the series on HIV-1 IIIB (10 ug/ml); 5 log units in the series with HIV-1 IIIB (50 ug/ml); 5 log units in the series on HIV-1 (RF) [3] (10 ug/ml, C8166 cells); 6 log units with HIV-1 (RF) [3] (50 ug/ml, C8166 cells). Moreover, the “Inhibition of HIV-1 (RF), live cell (C8166) reduction of MTT, estimated visually” value in the series on HIV-1 (RF) [2] (1.0 ug/ml) and in the series on HIV-1 (RF) [2] (10 ug/ml) was “-” each time. Moreover, the “inhibitory concentration (minimum concentration at which syncytia formation was <10% that of controls)” value in the series on CBL20 is 50 µg/µL; with RF it was 5 µg/µL; in the series on RUT it was 5 µg/µL; with IIIb it was 5 µg/µL. For the same molecule, in the series on Bovine Thrombin, the “anti-coagulant activity in words” value is “least anti-coagulant”. The “anti-HIV activity in words” value in the series with HIV-1 [4] was “about the same activity against the HIV-1 virus as the dextrin 6sulphate”. Also, in the series with HIV-1 [5], the overall effectiveness result is recorded as “overall greater effectiveness”. For the same molecule, the “inhibition (reduction of the infectious titre)” value with HIV-1 (RF) [3] (1 ug/ml, HIV-1 (RF), C8166 cells) is listed as 2 logs. The “Final dilution … (logarithm to the base 10)” value with HIV-1 (RF) [3] (setting [9]) is on record as -4; with HIV-1 (RF) [3] (setting [10]) it was -2; with HIV-1 (RF) [3] (setting [11]), -2. The “reduction of the infectious titre” value with HIV-1 (RF) [3] (setting [10]) amounted to 3 logs. Further, the “inhibition of syncytial induction on C8166 cells” value with HIV-1 (RF) [3] (compared with AZT and dextran sulphate) is recorded as “inhibits syncytial induction on C8166 cells with greater effect than either AZT or dextran sulphate”.

In the case of dextrin 3-sulphate, the “inhibitory concentration (minimum concentration at which syncytia formation was <10% that of controls)” value is > 50 µg/µL in the series with CBL20, 5 µg/µL in the series on RF, 50 µg/µL in the series with RUT and 50 µg/µL in the series on IIIb. Besides, the “anti-coagulant activity in words” value with Bovine Thrombin is on record as “least anti-coagulant”. Besides, the “effectiveness against RF” value in the series with RF (compared with dextran sulphate (MW 8,000)) is “more effective than dextran sulphate against RF”. The “anti-HIV activity in words” value in the series on HIV-1 [4] is “relatively poor anti-HIV activity, by comparison with dextrin 2- and 6-sulphates”.

For dextrin 6-sulphate, the “inhibitory concentration (minimum concentration at which syncytia formation was <10% that of controls)” value in the series on CBL20 was > 50 µg/µL; in the series with RF, 5 µg/µL; in the series on RUT, 50 µg/µL; in the series on IIIb, 5 µg/µL. Moreover, in the series with Bovine Thrombin, the “anti-coagulant activity in words” value was “greater anti-coagulant activity”. Further, the overall effectiveness entry in the series on HIV-1 [5] is listed as “overall greater effectiveness”.
